# Results taken from patent publication US20180214411A1, “COMPOSITION COMPRISING SATIETY-INDUCING PARTICLES” (PERORA GMBH, priority 2015, published 2018).
# Assay: tryptophan release / dissolution in fasted-state simulated gastric fluid (FaSSGF)
# Assay type: physicochemical
# Settings: 30 mg powder in 22 mL FaSSGF, 37° C., agitated
# Procedure: 30 mg of tryptophan powder were suspended in 22 mL FaSSGF at 37° C. and agitated (shaker ST5 from CAT, Germany). Aliquots were removed at time intervals of 5 min, and tryptophan concentration was quantified using absorption measurement at a wavelength of 280 nm in a NanoDrop® 2000 device (Thermo Scientific, USA).
smiles,measurement,value
"N[C@@H](Cc1c[nH]c2ccccc12)C(=O)O [tryptophan powder, L-Tryptophan]",time after which tryptophan was quantitatively dissolved,10 min
